Data reported in patent publication US9220680B2, “Compositions and methods for localized drug delivery through mammary papillae” (South Dakota State University, priority 2012, dated 2015).

Legend:
[1] = Permeation across human breast skin (Experiments 16-18); type: in vitro ADME; conditions: human breast skin, value (SEM)
From the text: Mammary papillae and skin tissues were thawed. Keratin plugs were removed from the mammary papilla tissues using swabs with ethanol. […] The drug solutions were spiked with radioactive substances. […] Receptor medium was PBS with 7.4 pH. […] Results may be seen in FIG. 41 and Table 20.
Mammary papillae and skin tissues were thawed. Keratin plugs were removed from the mammary papilla tissues using swabs with ethanol. […] The drug solutions were spiked with radioactive substances. […] Receptor medium was PBS with 7.4 pH. […] Results may be seen in FIG. 42 and Table 22. […]

[2] = Permeation across human mammary areola vs human breast skin (Experiments 19-21); conditions: cadaver tissue; donor in 50:50 ethanol:water; 48 hours
Description: (§1) Mammary areolae and skin tissues were procured from a cadaver (Pacific Islander). […] The drug solutions were spiked with radioactive substances. Now 500 μl of the formulation was placed in the donor. Receptor medium was PBS with 7.4 pH. Three […] samples of donor were taken to determine DPM of donors. 200 μl samples were taken from the receptor at pre-determined time points. […] Results may be seen in FIG. 44.
as §1, with “45.” for “44.”
as §1, with “46.” for “44.”

[3] = In vitro penetration and permeation via excised porcine mammary papilla, Franz diffusion cell (Example 1); type: in vitro ADME
Description: Drug penetration and permeation via mammary papillae was performed in a Franz diffusion cell using excised porcine mammary papilla. […] The transport studies were performed at time points for 6 and 48 hours.
In a separate study to evaluate the drug retention and disposition, the treatment was removed after 6 hours and the study was continued until the 48 hour mark. Samples were withdrawn from the receptor compartment at different time points. At the end of study, the mammary papilla was cut to 2 mm thick cylindrical sections from the top to the base of the tissue and was digested using a tissue solubilizer. The drug concentrations were determined by liquid scintillation counting.
Methods for the preparation of porcine mammary papilla. Freshly excised strips of porcine mammary papilla (6-7 months old animals) were washed with deionized water followed by removal of subcutaneous fatty tissue using a scalpel. Keeping the mammary papilla in the center, 3 cm×3 cm sized specimens of the tissue were excised, subcutaneous fat tissue was removed, and the tissue was frozen at −20° C. until used for the drug penetration and permeation studies.
Breast tissue was mounted between the two compartments of a vertical Franz diffusion cell (FDC) with breast tissue sandwiched between donor and receptor compartments. A mammary papilla was set in upright position inside the donor compartment of Franz diffusion cell. […] Samples were withdrawn from the receptor at different time points for 48 hours to determine drug concentration by radioactive count. At the end of 48 hours, tissue samples were taken for drug content determination. […]
In a second study, the mammary papillae in Franz diffusion cells were treated with the drugs for 48 hours and the permeation was followed through 48 hours. This analysis provided information regarding any saturation from drug treatment for extended periods of time. […]
Extraction of drugs from the mammary papilla. At the end of permeation study, the mammary papilla was removed from Franz diffusion cell and thoroughly washed with deionized water and blotted dried. Approximately 2 mm thick sections of the tissue were taken using a scalpel. These sections were homogenized, the drug was extracted, and the drug concentration was determined by radioactive counts.

[4] = Transmammary permeation across human mammary papilla with and without removal of the keratin plug (Experiments 12-18); type: in vitro ADME; conditions: for lag time / cumulative amount permeated / Drug retention in tissue / Flux: value (SEM); for cumulative amount permeated: 48 hours; for Drug retention in tissue: end of 48 hours
From the text: Mammary papillae tissues were thawed. […] The drug solutions were spiked with radioactive substances. […] Receptor medium was PBS with 7.4 pH. […] Results may be seen in FIG. 37 and Table 13.
Mammary papillae tissues were thawed. […] The drug solutions were spiked with radioactive substances. […] Receptor medium was PBS with 7.4 pH. […] Results may be seen in FIG. 38 and Table 15.
Mammary papillae tissues were thawed. […] The drug solutions were spiked with radioactive substances. […] Receptor medium was PBS with 7.4 pH. […] Results may be seen in FIG. 39 and Table 17.
Mammary papillae tissues were thawed. […] The drug solutions were spiked with radioactive substances. […] Receptor medium was PBS with 7.4 pH. […] Results may be seen in FIG. 40.
Mammary papillae and skin tissues were thawed. […] The drug solutions were spiked with radioactive substances. […] Receptor medium was PBS with 7.4 pH. […] Results may be seen in FIG. 41 and Table 20.
Mammary papillae and skin tissues were thawed. […] The drug solutions were spiked with radioactive substances. […] Receptor medium was PBS with 7.4 pH. […] Results may be seen in FIG. 42 and Table 22.
Mammary papillae tissues were thawed. […] The drug solutions were spiked with radioactive substances. […] Receptor medium was PBS with 7.4 pH. […] Results may be seen in FIG. 43 and Table 24.

[5] = excised porcine mammary papilla, saturated solution in ethanol:water (50:50), 48 h, mean ± SEM, n=3
[6] = porcine mammary papilla, end of 48 h, mean ± SEM, n=3
[7] = 5FU 20 mg/ml, human mammary papilla with keratin plug removal
[8] = 5FU 20 mg/ml, human mammary papilla without keratin plug removal

For O=c1[nH]cc(F)c(=O)[nH]1 [5FU, 5-fluorouracil], the lag time ([1]; 5FU 20 mg/ml in 1:1 ethanol:water) was 3.64 (0.37) hours, the cumulative amount permeated ([1]; 5FU 20 mg/ml, 48 hours) was 2.69 (0.22) μmole and the “Drug retention in tissue” value ([1]; 5FU 20 mg/ml, end of 48 hours) was 9.56 (1.11) umole/g of tissue. For the same molecule, the Flux ([1]; 5FU 20 mg/ml) was 0.08 (0.01) μmole/cm^2/hour, the “Permeability across human mammary areola compared with human breast skin” value [2] was “lower than that across human breast skin” and the Lag time ([3]; excised porcine mammary papilla, Franz diffusion cell, saturated solution in ethanol:water (50:50), 48 h, mean ± SEM, n=3) was 8.18 ± 0.79 h. For the same molecule, the Cumulative % permeated [3, 5] was 5.71 ± 0.06%, the “Flux × 10^3” value [3, 5] was 38.46 ± 2.38 μM · cm^2 · hr^−1 and the “Permeability coefficient × 10^3” value [3, 5] was 0.25 ± 0.015 cm^2 · hr^−1. It also gave a cumulative amount permeated [3, 5] of 4.38 ± 0.04 µM, a Cumulative % retained [3, 6] of 4.94 ± 0.74% and a Cumulative amount retained [3, 6] of 3.80 ± 0.56 µM. For the same molecule, the “Drug extraction from 2 mm thick mammary papilla sections, Section A (tip)” value [3, 6] was 13.47 ± 1.35 µM/g, the “Drug extraction from 2 mm thick mammary papilla sections, Section B” value [3, 6] was 11.78 ± 1.69 µM/g and the “Drug extraction from 2 mm thick mammary papilla sections, Section C” value [3, 6] was 9.80 ± 1.44 µM/g. The “Drug extraction from 2 mm thick mammary papilla sections, Section D (base)” value [3, 6] was 5.84 ± 1.69 µM/g, the “Permeation across mammary papilla (in words)” value ([3]; porcine mammary papilla, treatment up to 48 hours) was “significant amount of 5FU passes through the mammary papilla” and the lag time ([4]; 5FU 20 mg/ml in 50:50 ethanol:water, human mammary papilla with keratin plug removal, n=3-4) was 8.76 (1.46) hours. For the same molecule, the cumulative amount permeated [4, 7] was 5.06 (1.17) μmole, the “Drug retention in tissue” value [4, 7] was 7.30 (2.81) umole/g of tissue and the Flux [4, 7] was 0.18 (0.05) μmole/cm^2/hour. For the same molecule, the cumulative amount permeated [4, 8] was 0.71 (0.08) μmole, the “Drug retention in tissue” value [4, 8] was 2.28 (0.04) umole/g of tissue and the Flux [4, 8] was 0.03 (0.00) μmole/cm^2/hour. For the same molecule, the lag time [4, 8] was 17.96 (3.80) hours, the “Permeation profile via human vs porcine mammary papillae” value ([4]; after keratin plug removal, 48 hours (Experiment 15)) was “similar” and the “Increase in permeation across the tissues upon removal of the keratin plugs” value ([4]; human mammary papilla) was “more than 7 fold”.
